Measured values as given in ChEMBL document CHEMBL1143491, “Pentacyclic triterpenes. Part 1: the first examples of naturally occurring pentacyclic triterpenes as a new class of inhibitors of glycogen phosphorylases” (Bioorg Med Chem Lett, 2005).
pIC50: −log10 of the molar value.

Target: T1, Glycogen phosphorylase, liver form (Rattus norvegicus, UniProt P09811)
T1 sequence (P09811 whole entry): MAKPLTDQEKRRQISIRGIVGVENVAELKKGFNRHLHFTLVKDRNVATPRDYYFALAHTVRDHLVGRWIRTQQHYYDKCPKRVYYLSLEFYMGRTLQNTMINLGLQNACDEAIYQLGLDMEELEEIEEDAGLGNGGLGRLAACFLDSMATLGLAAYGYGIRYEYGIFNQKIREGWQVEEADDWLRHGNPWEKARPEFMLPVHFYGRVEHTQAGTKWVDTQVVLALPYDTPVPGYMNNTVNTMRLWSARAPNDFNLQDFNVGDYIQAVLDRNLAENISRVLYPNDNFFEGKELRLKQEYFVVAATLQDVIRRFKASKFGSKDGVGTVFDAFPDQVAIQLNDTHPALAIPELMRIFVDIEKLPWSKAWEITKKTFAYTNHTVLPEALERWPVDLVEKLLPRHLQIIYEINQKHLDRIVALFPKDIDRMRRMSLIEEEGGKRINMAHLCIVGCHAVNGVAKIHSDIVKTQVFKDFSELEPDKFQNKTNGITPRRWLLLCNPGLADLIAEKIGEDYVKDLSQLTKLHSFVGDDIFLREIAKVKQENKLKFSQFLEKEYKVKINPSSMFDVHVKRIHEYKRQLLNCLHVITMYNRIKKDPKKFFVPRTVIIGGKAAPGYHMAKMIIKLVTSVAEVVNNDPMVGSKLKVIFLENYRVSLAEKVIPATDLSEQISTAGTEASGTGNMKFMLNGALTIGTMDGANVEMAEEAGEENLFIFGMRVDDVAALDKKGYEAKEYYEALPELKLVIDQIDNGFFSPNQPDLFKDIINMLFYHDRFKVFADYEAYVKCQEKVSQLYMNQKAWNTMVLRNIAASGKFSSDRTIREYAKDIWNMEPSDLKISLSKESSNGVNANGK
Assay: Inhibitory concentration against rat liver glycogen phosphorylase

C[C@H]1[C@H](C)CC[C@]2(C(=O)O)CC[C@]3(C)C(=CC[C@@H]4[C@@]5(C)C[C@@H](O)[C@H](O)C(C)(C)[C@@H]5CC[C@]43C)[C@H]12 [COROSOLIC ACID] gave a pIC50 of 4.00.
CC1(C)CC[C@]2(C(=O)O)CC[C@]3(C)C(=CC[C@@H]4[C@@]5(C)C[C@@H](O)[C@H](O)C(C)(C)[C@@H]5CC[C@]43C)[C@@H]2C1 [MASLINIC ACID] was tested, and the pIC50 was 4.00.
With Cn1c(=O)c2c(ncn2C)n(C)c1=O [CAFFEINE] the pIC50 was 3.19.
